According to ChEMBL document CHEMBL4879554, “Data for DCP probe GNE-2256” (2021):
pIC50, pKi: −log10 of the molar value.

Key:
[1] = molecular target: Tyrosine-protein kinase Lyn (Homo sapiens) (UniProt P07948); experiment: Lyn Kinase panel; details: Compound concentration 1.0 uM
[2] = molecular target: Muscarinic acetylcholine receptor M1 (Homo sapiens) (UniProt P11229); details: Compound concentration 10.0 uM
[3] = molecular target: Activin receptor type-1 (Homo sapiens) (UniProt Q04771); experiment: ALK2 Kinase panel; details: Compound concentration 1.0 uM
[4] = molecular target: Bone morphogenetic protein receptor type-1A (Homo sapiens) (UniProt P36894); experiment: BMPR1A Kinase panel; details: Compound concentration 1.0 uM
[5] = molecular target: D(2) dopamine receptor (Homo sapiens) (UniProt P14416); details: Compound concentration 10.0 uM
[6] = molecular target: Muscarinic acetylcholine receptor M5 (Homo sapiens) (UniProt P08912); details: Compound concentration 10.0 uM
[7] = molecular target: Serine/threonine-protein kinase DCLK2 (Homo sapiens) (UniProt Q8N568); experiment: DCAMKL2 Kinase panel; details: Compound concentration 1.0 uM
[8] = molecular target: Receptor-interacting serine/threonine-protein kinase 2 (Homo sapiens) (UniProt O43353); experiment: RIPK2 Kinase panel; details: Compound concentration 1.0 uM
[9] = molecular target: MAP kinase-interacting serine/threonine-protein kinase 2 (Homo sapiens) (UniProt Q9HBH9); experiment: MKNK2 Kinase panel; details: Compound concentration 1.0 uM
[10] = molecular target: Misshapen-like kinase 1 (Homo sapiens, UniProt Q8N4C8); experiment: Mink1 Kinase panel
[11] = molecular target: Tyrosine-protein kinase Fes/Fps (Homo sapiens) (UniProt P07332); experiment: Fes Kinase panel; details: Compound concentration 1.0 uM
[12] = molecular target: Non-receptor tyrosine-protein kinase TYK2 (Homo sapiens) (UniProt P29597); experiment: TYK2 Kinase panel; details: Compound concentration 1.0 uM
[13] = molecular target: Alpha-1D adrenergic receptor (Homo sapiens) (UniProt P25100); details: Compound concentration 10.0 uM
[14] = molecular target: 5-hydroxytryptamine receptor 5A (Homo sapiens) (UniProt P47898); details: Compound concentration 10.0 uM
[15] = molecular target: Beta-1 adrenergic receptor (Homo sapiens) (UniProt P08588); details: Compound concentration 10.0 uM
[16] = molecular target: RAC-beta serine/threonine-protein kinase (Homo sapiens) (UniProt P31751); experiment: AKT2 Kinase panel; details: Compound concentration 1.0 uM
[17] = molecular target: Myosin light chain kinase, smooth muscle (Homo sapiens) (UniProt Q15746); experiment: MYLK(smMLCK) Kinase panel; details: Compound concentration 1.0 uM
[18] = molecular target: Receptor tyrosine-protein kinase erbB-2 (Homo sapiens) (UniProt P04626); experiment: ErbB2 Kinase panel; details: Compound concentration 1.0 uM
[19] = molecular target: Beta-adrenergic receptor kinase 1 (Homo sapiens) (UniProt P25098); experiment: GRK2 Kinase panel; details: Compound concentration 1.0 uM
[20] = molecular target: Serine/threonine-protein kinase Chk2 (Homo sapiens) (UniProt O96017); experiment: CHK2 Kinase panel; details: Compound concentration 1.0 uM
[21] = molecular target: Serine/threonine-protein kinase MARK1 (Homo sapiens) (UniProt Q9P0L2); experiment: MARK1 Kinase panel; details: Compound concentration 1.0 uM
[22] = molecular target: Histamine H2 receptor (Homo sapiens) (UniProt P25021); details: Compound concentration 10.0 uM
[23] = molecular target: Mitogen-activated protein kinase kinase kinase 8 (Homo sapiens) (UniProt P41279); experiment: Cot Kinase panel; details: Compound concentration 1.0 uM
[24] = molecular target: Inhibitor of nuclear factor kappa-B kinase subunit alpha (Homo sapiens) (UniProt O15111); experiment: IKK_alpha Kinase panel; details: Compound concentration 1.0 uM
[25] = molecular target: Calcium/calmodulin-dependent protein kinase type II subunit beta (Homo sapiens) (UniProt Q13554); experiment: CaMKII_beta Kinase panel; details: Compound concentration 1.0 uM
[26] = molecular target: Ribosomal protein S6 kinase alpha-5 (Homo sapiens) (UniProt O75582); experiment: MSK1 Kinase panel; details: Compound concentration 1.0 uM
[27] = molecular target: Serine/threonine-protein kinase PAK 1 (Homo sapiens) (UniProt Q13153); experiment: PAK1 Kinase panel; details: Compound concentration 1.0 uM
[28] = system: RAF proto-oncogene serine/threonine-protein kinase (Homo sapiens), P04049 [Y340D,Y341D]; experiment: RAF1(Y340D,Y3\n41D) Kinase panel; details: Compound concentration 1.0 uM
[29] = molecular target: Wee1-like protein kinase (Homo sapiens) (UniProt P30291); experiment: WEE1 Kinase panel; details: Compound concentration 1.0 uM
[30] = molecular target: SRSF protein kinase 3 (Homo sapiens) (UniProt Q9UPE1); experiment: MSSK1 Kinase panel; details: Compound concentration 1.0 uM
[31] = molecular target: Mitogen-activated protein kinase 1 (Homo sapiens) (UniProt P28482); experiment: ERK2 Kinase panel; details: Compound concentration 1.0 uM
[32] = molecular target: 5-hydroxytryptamine receptor 2B (Homo sapiens, UniProt P41595); experiment: GPCRScan assay: inhibition of 5-HT2B; set-up: radioligand conc. used [nm] 1.0 – 2.0, parental cells stable HEK
[33] = molecular target: Ribosomal protein S6 kinase alpha-2 (Homo sapiens) (UniProt Q15349); experiment: RSK3 Kinase panel; details: Compound concentration 1.0 uM
[34] = molecular target: Serine/threonine-protein kinase Nek6 (Homo sapiens) (UniProt Q9HC98); experiment: NEK6 Kinase panel; details: Compound concentration 1.0 uM
[35] = molecular target: Mitogen-activated protein kinase 12 (Homo sapiens) (UniProt P53778); experiment: p38_gamma Kinase panel; details: Compound concentration 1.0 uM
[36] = molecular target: Histamine H3 receptor (Homo sapiens) (UniProt Q9Y5N1); details: Compound concentration 10.0 uM
[37] = molecular target: Mitogen-activated protein kinase kinase kinase 5 (Homo sapiens) (UniProt Q99683); experiment: ASK1 Kinase panel; details: Compound concentration 1.0 uM
[38] = molecular target: Tyrosine-protein kinase ITK/TSK (Homo sapiens) (UniProt Q08881); experiment: ITK Kinase panel; details: Compound concentration 1.0 uM
[39] = molecular target: Tyrosine-protein kinase JAK3 (Homo sapiens) (UniProt P52333); experiment: JAK3 Kinase panel; details: Compound concentration 1.0 uM
[40] = molecular target: Vascular endothelial growth factor receptor 2 (Homo sapiens) (UniProt P35968); experiment: KDR Kinase panel; details: Compound concentration 1.0 uM
[41] = molecular target: Alpha-2C adrenergic receptor (Homo sapiens) (UniProt P18825); details: Compound concentration 10.0 uM
[42] = molecular target: D(3) dopamine receptor (Homo sapiens) (UniProt P35462); details: Compound concentration 10.0 uM
[43] = molecular target: Serine/threonine-protein kinase pim-1 (Homo sapiens) (UniProt P11309); experiment: PIM1 Kinase panel; details: Compound concentration 1.0 uM
[44] = molecular target: DNA-dependent protein kinase catalytic subunit (Homo sapiens) (UniProt P78527); experiment: DNA_PK Kinase panel; details: Compound concentration 1.0 uM
[45] = molecular target: Homeodomain-interacting protein kinase 1 (Homo sapiens) (UniProt Q86Z02); experiment: HIPK1 Kinase panel; details: Compound concentration 1.0 uM
[46] = molecular target: Aurora kinase A (Homo sapiens) (UniProt O14965); experiment: Aurora_A Kinase panel; details: Compound concentration 1.0 uM
[47] = molecular target: Tyrosine-protein kinase Blk (Homo sapiens) (UniProt P51451); experiment: Blk Kinase panel; details: Compound concentration 1.0 uM
[48] = molecular target: Tyrosine-protein kinase Yes (Homo sapiens) (UniProt P07947); experiment: Yes Kinase panel; details: Compound concentration 1.0 uM
[49] = molecular target: Serine/threonine-protein kinase PAK 3 (Homo sapiens) (UniProt O75914); experiment: PAK3 Kinase panel; details: Compound concentration 1.0 uM
[50] = molecular target: Serine/threonine-protein kinase 16 (Homo sapiens) (UniProt O75716); experiment: STK16 Kinase panel; details: Compound concentration 1.0 uM
[51] = molecular target: Fibroblast growth factor receptor 1 (Homo sapiens) (UniProt P11362); experiment: FGFR1 Kinase panel; details: Compound concentration 1.0 uM
[52] = system: Epidermal growth factor receptor (Homo sapiens), P00533 [L858R,T790M]; experiment: EGFR(T790M,L8 58R) Kinase panel; details: Compound concentration 1.0 uM
[53] = molecular target: Serine/threonine-protein kinase 3 (Homo sapiens) (UniProt Q13188); experiment: MST2 Kinase panel; details: Compound concentration 1.0 uM
Sequence of Serine/threonine-protein kinase 3 (Homo sapiens) (Q13188 whole entry): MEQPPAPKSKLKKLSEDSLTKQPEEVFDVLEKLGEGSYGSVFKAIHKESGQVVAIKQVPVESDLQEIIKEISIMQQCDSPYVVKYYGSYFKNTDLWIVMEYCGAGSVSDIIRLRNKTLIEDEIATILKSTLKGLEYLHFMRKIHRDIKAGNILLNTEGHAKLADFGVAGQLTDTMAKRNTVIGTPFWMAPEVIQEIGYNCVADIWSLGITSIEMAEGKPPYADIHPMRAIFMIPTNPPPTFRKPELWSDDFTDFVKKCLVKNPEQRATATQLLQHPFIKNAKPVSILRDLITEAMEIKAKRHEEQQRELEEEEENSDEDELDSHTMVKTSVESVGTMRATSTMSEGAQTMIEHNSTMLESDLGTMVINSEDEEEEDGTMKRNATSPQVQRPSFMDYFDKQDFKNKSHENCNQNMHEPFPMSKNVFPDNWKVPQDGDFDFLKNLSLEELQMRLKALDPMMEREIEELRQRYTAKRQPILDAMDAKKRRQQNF

Sequence of Serine/threonine-protein kinase PAK 1 (Homo sapiens) (Q13153 whole entry): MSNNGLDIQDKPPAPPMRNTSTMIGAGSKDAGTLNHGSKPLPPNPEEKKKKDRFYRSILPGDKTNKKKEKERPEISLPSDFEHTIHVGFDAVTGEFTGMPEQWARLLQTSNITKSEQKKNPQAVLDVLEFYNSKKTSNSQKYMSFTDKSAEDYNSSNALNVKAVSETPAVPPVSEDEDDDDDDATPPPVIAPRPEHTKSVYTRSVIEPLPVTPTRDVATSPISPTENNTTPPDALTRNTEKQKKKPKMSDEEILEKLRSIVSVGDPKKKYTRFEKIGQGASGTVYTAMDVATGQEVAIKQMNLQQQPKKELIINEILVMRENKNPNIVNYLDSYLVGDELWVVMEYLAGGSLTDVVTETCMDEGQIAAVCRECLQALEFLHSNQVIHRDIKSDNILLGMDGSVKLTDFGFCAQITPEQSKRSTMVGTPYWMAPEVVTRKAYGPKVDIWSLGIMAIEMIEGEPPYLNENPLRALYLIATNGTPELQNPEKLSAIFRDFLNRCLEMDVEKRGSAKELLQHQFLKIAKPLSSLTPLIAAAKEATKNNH
Sequence of Inhibitor of nuclear factor kappa-B kinase subunit alpha (Homo sapiens) (O15111 whole entry): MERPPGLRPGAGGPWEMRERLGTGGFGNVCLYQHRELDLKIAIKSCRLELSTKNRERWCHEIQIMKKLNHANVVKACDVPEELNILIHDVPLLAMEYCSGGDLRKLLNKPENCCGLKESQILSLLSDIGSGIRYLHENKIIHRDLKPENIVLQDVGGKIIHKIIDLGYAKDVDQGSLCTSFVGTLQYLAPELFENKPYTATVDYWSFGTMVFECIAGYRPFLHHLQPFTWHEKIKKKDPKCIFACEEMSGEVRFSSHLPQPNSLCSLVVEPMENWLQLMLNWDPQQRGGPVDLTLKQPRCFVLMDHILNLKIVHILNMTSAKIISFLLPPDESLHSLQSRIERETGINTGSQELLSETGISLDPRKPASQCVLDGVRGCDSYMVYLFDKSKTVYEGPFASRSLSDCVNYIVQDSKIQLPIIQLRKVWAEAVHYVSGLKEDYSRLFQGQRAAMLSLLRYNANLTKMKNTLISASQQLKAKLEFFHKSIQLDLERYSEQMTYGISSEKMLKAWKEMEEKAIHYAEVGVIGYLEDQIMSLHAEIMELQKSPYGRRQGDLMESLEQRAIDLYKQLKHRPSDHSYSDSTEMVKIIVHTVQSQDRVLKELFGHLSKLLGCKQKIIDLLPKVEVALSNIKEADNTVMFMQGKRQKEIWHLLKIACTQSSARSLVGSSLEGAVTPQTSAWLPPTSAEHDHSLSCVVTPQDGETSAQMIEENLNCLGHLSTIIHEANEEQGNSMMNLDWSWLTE
Sequence of Alpha-2C adrenergic receptor (Homo sapiens) (P18825 whole entry): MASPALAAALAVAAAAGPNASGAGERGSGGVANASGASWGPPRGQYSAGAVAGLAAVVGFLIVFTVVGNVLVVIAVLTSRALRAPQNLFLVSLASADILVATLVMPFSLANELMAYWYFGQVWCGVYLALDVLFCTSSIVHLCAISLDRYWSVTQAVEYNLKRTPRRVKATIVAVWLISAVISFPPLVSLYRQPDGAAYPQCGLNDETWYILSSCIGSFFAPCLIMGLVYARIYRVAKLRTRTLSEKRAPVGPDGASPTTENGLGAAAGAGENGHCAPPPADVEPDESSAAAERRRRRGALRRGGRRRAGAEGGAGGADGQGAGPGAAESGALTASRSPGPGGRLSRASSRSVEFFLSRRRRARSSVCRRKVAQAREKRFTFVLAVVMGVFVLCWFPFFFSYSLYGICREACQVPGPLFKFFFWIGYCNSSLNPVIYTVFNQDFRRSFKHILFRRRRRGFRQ
Sequence of Beta-1 adrenergic receptor (Homo sapiens) (P08588 whole entry, looked up): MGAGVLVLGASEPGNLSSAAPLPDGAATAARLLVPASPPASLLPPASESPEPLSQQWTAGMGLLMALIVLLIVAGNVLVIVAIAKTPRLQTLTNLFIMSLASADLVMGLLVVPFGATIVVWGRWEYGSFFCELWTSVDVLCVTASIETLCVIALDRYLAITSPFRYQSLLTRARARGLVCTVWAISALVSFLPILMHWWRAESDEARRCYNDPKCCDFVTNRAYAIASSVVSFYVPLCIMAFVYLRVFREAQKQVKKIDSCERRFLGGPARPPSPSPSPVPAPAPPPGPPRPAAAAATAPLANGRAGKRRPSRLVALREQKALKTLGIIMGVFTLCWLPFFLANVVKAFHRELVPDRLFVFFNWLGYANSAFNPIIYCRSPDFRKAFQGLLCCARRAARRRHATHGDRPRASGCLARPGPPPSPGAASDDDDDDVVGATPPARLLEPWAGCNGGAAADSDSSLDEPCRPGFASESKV
Sequence of D(2) dopamine receptor (Homo sapiens) (P14416 whole entry): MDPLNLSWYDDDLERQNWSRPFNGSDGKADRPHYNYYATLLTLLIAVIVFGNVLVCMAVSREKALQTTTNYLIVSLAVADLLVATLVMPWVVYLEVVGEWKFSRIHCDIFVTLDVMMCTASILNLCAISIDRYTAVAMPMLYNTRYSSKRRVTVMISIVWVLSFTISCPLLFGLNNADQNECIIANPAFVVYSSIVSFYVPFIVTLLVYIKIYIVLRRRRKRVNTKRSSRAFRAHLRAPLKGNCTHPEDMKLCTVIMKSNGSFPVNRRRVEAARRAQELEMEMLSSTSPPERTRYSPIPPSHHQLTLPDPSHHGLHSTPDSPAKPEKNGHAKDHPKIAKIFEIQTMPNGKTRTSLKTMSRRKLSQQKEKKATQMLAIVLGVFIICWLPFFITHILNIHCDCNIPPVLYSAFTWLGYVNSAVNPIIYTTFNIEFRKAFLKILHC
Sequence of Serine/threonine-protein kinase pim-1 (Homo sapiens) (P11309 whole entry, looked up): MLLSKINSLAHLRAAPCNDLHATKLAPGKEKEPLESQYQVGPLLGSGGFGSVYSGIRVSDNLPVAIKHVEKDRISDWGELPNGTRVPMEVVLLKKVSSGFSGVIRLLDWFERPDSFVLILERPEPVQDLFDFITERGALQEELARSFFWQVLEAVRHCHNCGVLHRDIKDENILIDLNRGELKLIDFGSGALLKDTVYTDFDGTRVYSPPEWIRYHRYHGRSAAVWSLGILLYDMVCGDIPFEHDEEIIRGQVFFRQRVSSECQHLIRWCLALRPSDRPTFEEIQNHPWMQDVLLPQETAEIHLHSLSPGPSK
Sequence of Vascular endothelial growth factor receptor 2 (Homo sapiens) (P35968 whole entry): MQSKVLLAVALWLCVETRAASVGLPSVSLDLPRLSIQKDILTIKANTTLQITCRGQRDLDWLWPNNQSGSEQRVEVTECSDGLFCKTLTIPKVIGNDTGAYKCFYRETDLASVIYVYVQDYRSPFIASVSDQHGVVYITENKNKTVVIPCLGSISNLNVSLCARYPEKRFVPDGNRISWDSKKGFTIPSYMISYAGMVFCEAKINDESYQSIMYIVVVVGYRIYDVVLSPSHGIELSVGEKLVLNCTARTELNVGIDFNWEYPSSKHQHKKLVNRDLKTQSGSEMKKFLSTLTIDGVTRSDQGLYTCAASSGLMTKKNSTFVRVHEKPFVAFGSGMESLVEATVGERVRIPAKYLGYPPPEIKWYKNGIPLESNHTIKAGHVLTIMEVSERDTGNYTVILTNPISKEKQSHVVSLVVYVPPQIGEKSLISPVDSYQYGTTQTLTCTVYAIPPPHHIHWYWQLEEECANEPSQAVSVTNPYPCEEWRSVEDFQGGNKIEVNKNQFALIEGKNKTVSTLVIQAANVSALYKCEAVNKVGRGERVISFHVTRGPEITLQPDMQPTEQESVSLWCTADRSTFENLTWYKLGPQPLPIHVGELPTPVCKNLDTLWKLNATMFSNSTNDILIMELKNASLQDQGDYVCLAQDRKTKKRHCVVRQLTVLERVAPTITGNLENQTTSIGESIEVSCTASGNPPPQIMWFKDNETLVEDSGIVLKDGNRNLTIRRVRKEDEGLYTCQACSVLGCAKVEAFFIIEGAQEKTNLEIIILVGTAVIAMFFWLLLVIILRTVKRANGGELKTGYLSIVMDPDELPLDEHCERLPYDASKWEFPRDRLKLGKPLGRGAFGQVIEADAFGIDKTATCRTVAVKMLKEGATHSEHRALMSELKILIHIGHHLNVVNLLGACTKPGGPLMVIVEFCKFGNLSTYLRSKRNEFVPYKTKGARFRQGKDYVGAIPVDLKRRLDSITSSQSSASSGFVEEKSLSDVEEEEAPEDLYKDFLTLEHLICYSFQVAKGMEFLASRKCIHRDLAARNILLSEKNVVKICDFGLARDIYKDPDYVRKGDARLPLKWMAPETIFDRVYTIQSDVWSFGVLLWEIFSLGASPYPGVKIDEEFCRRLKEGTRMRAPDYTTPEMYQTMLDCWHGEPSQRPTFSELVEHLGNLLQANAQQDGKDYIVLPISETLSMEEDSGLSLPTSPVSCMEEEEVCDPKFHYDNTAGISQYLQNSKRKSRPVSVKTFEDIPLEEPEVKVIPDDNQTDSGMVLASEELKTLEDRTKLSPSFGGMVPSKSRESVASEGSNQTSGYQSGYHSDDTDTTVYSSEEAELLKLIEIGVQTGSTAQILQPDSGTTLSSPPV

CC(C)(O)[C@H](F)CN1Cc2cc(NC(=O)c3cnn4cccnc34)c(N3CCOCC3)cc2C1=O
6.06: pIC50 [10]
6.29: pKi [32]
inactive: inhibition [1] 55.3% | inhibition [2] -9.03% | inhibition [3] 8% | inhibition [4] 7% | inhibition [5] 3.24% | inhibition [6] -6.7% | inhibition [7] 0.5% | inhibition [8] 22.5% | inhibition [9] 6.5% | inhibition ([10]; Compound concentration 1.0 uM) 80.5% | inhibition [11] 19% | inhibition [12] 53.5% | inhibition [13] 6.71% | inhibition [14] -0.55% | inhibition [15] 1.93% | inhibition [16] 7.5% | inhibition [17] 12% | inhibition [18] 1.5% | inhibition [19] -3% | inhibition [20] 13% | inhibition [21] -1% | inhibition [22] -2.71% | inhibition [23] 3% | inhibition [24] 8.5% | inhibition [25] -5.5% | inhibition [26] -2% | inhibition [27] 9% | inhibition [28] -1.5% | inhibition [29] 5.5% | inhibition [30] 2.5% | inhibition [31] 0.5% | inhibition [33] 9% | inhibition [34] 7% | inhibition [35] 0.5% | inhibition [36] -5.14% | inhibition [37] 3.5% | inhibition [38] 21% | inhibition [39] 28% | inhibition [40] 17% | inhibition [41] -8.65% | inhibition [42] -1.84% | inhibition [43] 1.5% | inhibition [44] 9% | inhibition [45] -0% | inhibition [46] 20.5% | inhibition [47] 37.5% | inhibition [48] 41.5% | inhibition [49] 2% | inhibition [50] 15% | inhibition [51] 5.5% | inhibition [52] 13% | inhibition [53] 7%
